Several values for one entry are separate records, joined by “and”; a condition that tells them apart may be missing. Equal entries are not always repeated.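 Five concentrations, 48 hours, 96-well plates. The concentration for 50% growth inhibition is given as GI50. TGI marks complete inhibition of growth.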
Columns and labels:
Assay in all cases: inhibition of tumour cell growth, NCI panel, 48 h
HCT-116 colon = tested on: HCT-116 colon
NCI-H460 lung = tested on: NCI-H460 lung
T-47D breast = tested on: T-47D breast
SK-MEL-28 melanoma = tested on: SK-MEL-28 melanoma
NCI-H522 lung = tested on: NCI-H522 lung
COLO 205 colon = tested on: COLO 205 colon
SR leukemia = tested on: SR leukemia
CCRF-CEM leukemia = tested on: CCRF-CEM leukemia
SF-295 CNS = tested on: SF-295 CNS
SNB-75 CNS = tested on: SNB-75 CNS
HOP-62 NSCLC = tested on: HOP-62 NSCLC
MDA-N = tested on: MDA-N
OVCAR-5 ovarian = tested on: OVCAR-5 ovarian
SF-268 CNS = tested on: SF-268 CNS
786-0 renal = tested on: 786-0 renal

Compound	TGI (HCT-116 colon) [µM]	TGI (NCI-H460 lung) [µM]	TGI (T-47D breast) [µM]	TGI (SK-MEL-28 melanoma)	TGI (NCI-H522 lung) [µM]	TGI (COLO 205 colon)	TGI (SR leukemia)	TGI (CCRF-CEM leukemia) [µM]	TGI (SF-295 CNS)	TGI (SNB-75 CNS)	TGI (HOP-62 NSCLC)	TGI (MDA-N)	TGI (OVCAR-5 ovarian) [µM]	TGI (SF-268 CNS) [µM]	TGI (786-0 renal) [µM]	GI50 (HCT-116 colon) [µM]	GI50 (HOP-62 NSCLC)	GI50 (SR leukemia)	GI50 (SF-295 CNS)	GI50 (SNB-75 CNS)
CO/C(=N/N1CC1C(F)(F)F)c1ccncc1 (stereo unspecified)	> 100	> 100	> 100	> 100 µM	> 100	> 100 µM	> 100 µM	> 100	> 100 µM	> 100 µM	> 100 µM	> 100 µM	> 100	–	–	–	–	–	–	–
O=S(=O)(O)c1cc(S(=O)(=O)O)c2c(N=Nc3cccc4ccccc34)c(O)ccc2c1	> 100	> 100	> 100	> 100 µM	> 100	> 100 µM	> 100 µM	> 100	> 100 µM	> 100 µM	> 100 µM	> 100 µM	> 100	> 100	> 100	–	–	–	–	–
NC(=O)/N=C(\N)NC(=O)c1ccccc1	> 100	> 100	> 100	> 100 µM	> 100	–	> 100 µM	–	> 100 µM	–	> 100 µM	> 100 µM	> 100	–	> 100	–	–	–	–	–
O=C(Sc1c(-c2ccccc2)c(=O)n(-c2ccccc2)c(=S)n1-c1ccccc1)c1ccc(Cl)cc1	> 100	> 100	> 100	> 100 µM	> 100	> 100 µM	> 100 µM	> 100	> 100 µM	> 100 µM	> 100 µM	> 100 µM	> 100	> 100	> 100	–	–	–	–	–
O=C1CC2[C@@H](N3CCCC3)CCC(N1Cc1ccccc1)C2(O)O (stereo partly specified)	> 100	> 100	> 100	> 100 µM	> 100	> 100 µM	> 100 µM	> 100	> 100 µM	–	> 100 µM	> 100 µM	> 100	> 100	> 100	–	–	–	–	–
Cc1cc(C)c2c(=O)cc(-c3ccc(Cl)cc3)[nH]c2n1	> 63.4	> 100	> 100	> 75.2 µM	> 100	> 55.6 µM	> 100 µM	> 100	> 73.3 µM	> 65 µM	> 100 µM	25 µM	> 100	> 100	> 100	–	–	–	–	–
CC(=O)O[C@H]1CC[C@H]2[C@@H]3CCc4cc(O)c(I)cc4[C@H]3CC[C@]12C	29.9	26.9	31.7	29.6 µM	25.2	33.6 µM	> 100 µM	–	28.6 µM	26.2 µM	24 µM	31.3 µM	32.2	28.4	27.1	16	11 µM	–	–	–
NCC(=O)C(O)C(O)C(O)CO (stereo unspecified)	> 100	> 100	> 100	> 100 µM	> 100	> 100 µM	> 100 µM	> 100	> 100 µM	> 100 µM	> 100 µM	> 100 µM	> 100	> 100	> 100	–	–	–	–	–
O=C1CN(c2cccc(C(F)(F)F)c2)C(=O)CN1NCNN1CC(=O)N(c2cccc(C(F)(F)F)c2)CC1=O	> 100	> 100	> 100	> 100 µM	> 100	> 100 µM	> 100 µM	> 100	> 100 µM	> 100 µM	> 100 µM	> 100 µM	> 100	> 100	> 100	–	–	–	–	–
c1ccc(N/N=C2\CC(c3ccccc3)Oc3ccccc32)cc1 (stereo unspecified)	> 100	> 100	> 100	> 100 µM	53.6	> 100 µM	> 100 µM	> 100	> 100 µM	75.2 µM	> 100 µM	> 100 µM	> 100	> 100	66.8	–	–	–	–	–
CN(C)c1ccc(N=Nc2cccc3ccoc23)cc1	> 100	> 100	> 100	> 100 µM	> 100	> 100 µM	> 76.1 µM	> 100	> 100 µM	> 100 µM	> 100 µM	> 100 µM	> 100	> 100	> 100	–	–	–	–	–
COC(=O)c1cc(C)ccc1/C=C1\Cc2cc(C)c(C)cc2C1=O	> 100	> 100	> 100	> 100 µM	> 100	–	> 100 µM	–	> 100 µM	69.5 µM	> 100 µM	> 100 µM	> 100	> 100	> 100	–	–	–	–	–
CC1(C)C(O)c2ccccc2OC1N1CCN(C2Oc3ccccc3C(O)C2(C)C)CC1 (stereo unspecified)	> 100	> 100	> 100	> 100 µM	> 100	> 100 µM	> 100 µM	> 100	> 100 µM	> 100 µM	> 100 µM	> 100 µM	> 100	> 100	> 100	–	–	–	–	–
CC1OC(OC2C(OC(=O)[C@]34CCC(C)(C)C[C@H]3C3=CC[C@@H]5[C@@]6(C)CC[C@H](OC7OC(C(=O)O)C(O)C(O)C7O)C(C)(C)[C@@H]6CC[C@@]5(C)[C@]3(C)CC4)OCC(O)C2O)C(O)C(O)C1OC1OCC(O)C(O)C1O (stereo partly specified)	> 100	> 100	> 100	34.4 µM and 58.9 µM	> 100	31.2 µM and 30.6 µM	> 100 µM and 77.1 µM	> 100	> 100 µM and 58.6 µM	> 100 µM and 76.8 µM	> 100 µM and 55.6 µM	37.8 µM and 36.2 µM	> 100	> 100	> 100	–	> 100 µM and 25.5 µM	46.2 µM and 22.5 µM	53.5 µM and 24 µM	80.6 µM and 24.7 µM
C[C@]12CC[C@@H]3c4ccc(OC(=O)c5ccccc5)cc4CC[C@H]3[C@@H]1CCC2OC(=O)c1cccc2c(=O)c3ccccc3[nH]c12 (stereo partly specified)	30.5	32.2	60.2	30.6 µM	45.2	33.1 µM	> 100 µM	> 100	37.5 µM	55.8 µM	50.2 µM	27.8 µM	46.1	44.9	31.7	–	–	–	–	–

Source: PubChem BioAssay (NCI)
